In EP0232423A1, “CIRCULATION IMPROVING AGENT” (GRELAN PHARMACEUTICAL CO., LTD., priority 1985, dated 1987):

Legend:
ddY male mice [1] = experiment: Thromboembolic respiratory depression induced by ADP; format: in vivo; details: 30 mg/kg oral, ADP 40 mg/kg i.v., Compound (I) = erythro form
Method: The degree of formation of platelet thrombi in the pulmonary vessels of mice induced by intravenous administration of ADP can be measured based on the decrease in the respiratory rate. The anti-platelet thrombotic action of test drugs can be evaluated by using this decrease in the respiratory rate as a standard. […] Relative respiratory rate (%) was calculated according to the following formula. [formula] (cf. "Thrombosis Research", Vol. 35, Page 311, 1984)

platelets of rabbit = experiment: Fluidity of platelet membrane (fluorescence polarization); format: cell-based; parameters: Fluorescence polarization: unit not given here; details: fluidity increases as value decreases
From the text: The activity of compound (I) (lactate) and ifenprodil tartrate against the fluidity of platelet membrane was examined according to a known method (Biochimica et Biophysica Acta, vol. 798, page 210, 1984) using platelets of rabbit and using n-butyl alcohol as a positive control.

male mice [2] = experiment: Serum total cholesterol and β-lipoprotein in mice fed high cholesterol food; format: in vivo; details: 200 mg/kg oral on 6th and 7th day, high cholesterol food 7 days, three male mice
Method: Three male mice were fed high cholesterol food for 7 days and 200 mg/kg of compound (I) was orally administered on the 6th day and the 7th day. After a fast over night from the 7th day, measurements of the total cholesterol in serum (Abell et al, "Standard Method of Clinical Chemistry", vol. 2, page 26, […], published by Academic Press; Kanai et al, "[…]", vol. 7, page 64, 1978, published by Kanehara Shuppan) and the amount of β-lipoprotein (Fried-Hoeflmayer, Klin. Wschr., vol. 41, page 246, 1963; Kanai et al, "Rinsho Kensaho Teiyo", vol. 7, page 79, 1978, published by Kanehara Shuppan) were conducted. The control group was compound (I)-untreated.

male mice [3] = experiment: Isoproterenol-induced tachycardia; format: in vivo; details: 25 mg/kg oral, 30 minutes before 0.01 mg/kg isoproterenol i.v.; three male mice
Method: 25 mg/kg of compound (I) was orally administered to three male mice. After 30 minutes from administration, 0.01 mg/kg of isoproterenol, which is a β-agonist, was intravenously administered, and the effect of compound (I) on tachycardia induced by isoproterenol was observed. The control group was compound (I) - untreated.

α1-adrenoceptor = experiment: Antagonism of phenylephrine (α1-agonist) contraction in saphenous vein; format: cell-based, Mongrel dogs; details: compared by pA2 value
From the text: (§1) In this experiment, phenylephrine and clonidine were used as al-agonist and a2-agonist, respectively, and these agonists were cumulatively applied to obtain a dose-response curve.

Acute toxicity (LD50) = details: mouse, in vivo, mice
ddY male mice [4] = experiment: Ameliorative activity against damage of cerebral hypoxia (reduced pressure); format: in vivo; details: i.p.; 30 mg/kg compound (I) and ifenprodil tartrate, 16 mg/kg phentolamine
Method: Thirty mg/kg each of compound (I) (lactate) and ifenprodil tartrate and 16 mg/kg of phentolamine, which is an a-adrenoceptor blocker, were intraperitoneally administered to ddY male mice, respectively. […] Time from start of reduction of pressure until stop of respiration in the mice was measured. The control group was drug-untreated.

mice = experiment: Protective action on death caused by endotoxin shock; format: in vivo; details: for Number of survival after administration of endotoxin: of 15 (Compound (I)) or 14 (ifenprodil) animals
From the text: Compound (I) and ifenprodil tartrate were orally administered to mice and the protective action on death due to endotoxin shock was examined in accordance with a known method (Folia pharmacol. japon, vol. 86, page 17, 1985). The control group was drug-untreated.

α2-adrenoceptor = experiment: Antagonism of clonidine (α2-agonist) contraction in saphenous vein; format: cell-based, Mongrel dogs; details: clonidine
From the text: as §1

CC(C(O)c1ccc(OCc2ccccc2)cc1)N1CCC(Cc2ccccc2)CC1 (stereo not drawn) [Compound (I), 2-(4-benzylpiperidino)-l-(4-benzyloxyphenyl)propan-l-ol]
Relative respiratory rate (%) (ddY male mice [1]; 1/3 hr after administration): 53.1 ±11.7 (n=7) % | Relative respiratory rate (%) (ddY male mice [1]; 1 hr after administration): 51.2 ±5.6 (n=10) % | Relative respiratory rate (%) (ddY male mice [1]; 2 hr after administration): 52.8 ±7.4 (n=10) % | Relative respiratory rate (%) (ddY male mice [1]; 3 hr after administration): 49.0 ±8.4(*) (n=9) % | Relative respiratory rate (%) (ddY male mice [1]; 5 hr after administration): 41.9 ±11.5 (n=8) % | Fluorescence polarization (platelets of rabbit; 1 µM): 2±4 | Fluorescence polarization (platelets of rabbit; 10 µM): 0±8 | Fluorescence polarization (platelets of rabbit; 30 µM): -2±0 | Fluorescence polarization (platelets of rabbit; 100 µM): -22±7 | Reduction % as compared with control group Total cholesterol (male mice [2]; serum): 8% | Reduction % as compared with control group β-lipoprotein (male mice [2]): 18% | Inhibition % of isoproterenol-induced tachycardia (male mice [3]): 23% | competitive antagonism on the α1-agonist relative to that of ifenprodil (α1-adrenoceptor): about 1/15 | competitive antagonism on the α1-agonist relative to that of prazosin (α1-adrenoceptor): about 1/8 | LD50 (Acute toxicity (LD50); iv, venous injection): > 70 mg/kg | LD50 (Acute toxicity (LD50); oral): > 1200 mg/kg | effect on survival time (cerebral hypoxia) (ddY male mice [4]): markedly prolongs survival time | Number of survival after administration of endotoxin (mice; 70 mg/kg oral, 18 hr): 12 | Number of survival after administration of endotoxin (mice; 70 mg/kg oral, 20 hr): 9 | Number of survival after administration of endotoxin (mice; 70 mg/kg oral, 22 hr): 8 | Number of survival after administration of endotoxin (mice; 70 mg/kg oral, 24 hr): 5 | Number of survival after administration of endotoxin (mice; 70 mg/kg oral, 48 hr): 1 | Number of survival after administration of endotoxin (mice; 200 mg/kg oral, 18 hr): 13 | Number of survival after administration of endotoxin (mice; 200 mg/kg oral, 20 hr): 13 | Number of survival after administration of endotoxin (mice; 200 mg/kg oral, 22 hr): 10 | Number of survival after administration of endotoxin (mice; 200 mg/kg oral, 24 hr): 7 | Number of survival after administration of endotoxin (mice; 200 mg/kg oral, 48 hr): 5 | protective action on the death (endotoxin shock) (mice; oral, mice, compound (I) at 200 mg/kg): remarkable protective action on the death | antagonism on the α2-agonist (α2-adrenoceptor; concentration of 10^-5 M): non- competitive antagonism | antagonism on the α2-agonist (α2-adrenoceptor; concentration of 10^-6 M): No competitive antagonism is recognized
